Assay results: patent US20190259469A1, “Method for Evaluating Genotoxicity of Substance” (priority 2017, published 2019)
Read-outs that look alike come from different tables or passages of the source.

Assays:
Salmonella TA100 strain [1] = format: cell-based, S. typhimurium; conditions: for The number of revertants: mean and standard deviation of 3 plates
Procedure: (§1) In this Example, the genotoxicity of a mutagen was analyzed by qualitatively and quantitatively analyzing mutation patterns in the genome of an organism exposed to the mutagen according to the analysis method of the present invention. The mutagen used was ethylnitrosourea (ENU, CAS No. 759-73-9). A Salmonella TA100 strain which is available for detection of a base pair substitution mutation and is routinely used in the Ames test was used as the organism to be exposed to the mutagen. The experiment was conducted in 3 independent operations to prepare samples (n=3).
(§2) The exposure to the mutagen was carried out in conformity to the preincubation method of the Ames test (K. Mortelmans et al., Mutat. Res. —Fundam. Mol. Mech. Mutagen., 2000, 455, 29-60). TA100 strain was inoculated to 2 mL of Nutrient Broth No. 2 (manufactured by Oxoid Ltd.) and shake-cultured at 37° C. at 180 rpm for 4 hours to obtain a preculture solution having an O.D. 660 value of 1.0 or more. ENU (54%; manufactured by Sigma-Aldrich Co. LLC) was diluted with dimethyl sulfoxide (DMSO; manufactured by Wako Pure Chemical Industries, Ltd.). One hundred μL of the ENU solution diluted into an appropriate concentration, 500 μL of a 0.1 M phosphate buffer, and 100 μL of the preculture solution were added into a test tube (ENU concentration: 67.5, 135, 270, 405, 540, 810, and 1080 μg/tube), and shake-cultured at 100 rpm for 20 minutes in a water bath of 37° C. For a control group, 100 μL of a solvent (DMSO) was added instead of the ENU solution. After the shake culture for 20 minutes, the test tube containing the culture solution was taken out of the water bath. Fifty μL of the culture solution was added to 2 mL of a nutrient broth solution dispensed in advance, and additionally cultured at 37° C. at 180 rpm for 14 hours. Then, 1 mL of the bacterial suspension was recovered and centrifuged at 7,500 rpm for 5 minutes. The supernatant was removed to recover bacterial cells.
For the Ames test, a bacterial suspension exposed to ENU under the same conditions as above was also prepared. Two mL of top agar (containing 1% NaCl, 1% agar, 0.05 mM histidine and 0.05 mM biotin) warmed to 45° C. was added thereto, and the bacterial cells were suspended by vortex. Then, the suspension was layered over a minimal glucose agar medium (Tesmedia (Registered trademark) AN; manufactured by Oriental Yeast Co., Ltd.). The obtained plate was cultured at 37° C. for 48 hours. Then, observed colonies were counted.
The data was indicated by a mean and standard deviation of measurement values from 3 plates.

Salmonella TA100 strain [2] = assay: Mutation analysis by high-throughput sequencing of total DNA of TA100 strain exposed to mutagen; format: cell-based, S. typhimurium
Procedure: as §1, §2
From the bacterial cells obtained in the paragraph 1., total DNA was recovered using DNeasy Blood & Tissue Kit (manufactured by Qiagen N.V.) according to the recommended protocol.
The total DNA solutions recovered in the paragraph 2. from the control group and the ENU treatment groups were sequenced using a next-generation sequencer HiSeq 2500 (manufactured by Illumina, Inc.) according to the standard protocol. In this operation, DNA was fragmented into an average length of approximately […] by ultrasonic treatment. Adaptors were added to both ends of each fragment. The fragments were sequenced at a read length of 2×125 bp. 5.0-Gbp nucleotide sequence information per sample was obtained on average.
The editing of read sequences obtained by the sequencing and mutation analysis were conducted using Cutadapt software, PEAR software, Bowtie 2 software, Samtools software, and a program created using a programming language Python according to the conceptual diagram of analysis flow shown in Schematic diagram 2 in the same way as in Example 1. In this Example, PCR duplicates were removed using Picard tools (broadinstitute.github.io/picard/) after mapping using the Bowtie 2 software.
A reference sequence for the mapping using the Bowtie 2 software was constructed on the basis of the genomic sequence of the S. typhimurium TA100 strain. First, DNA was extracted from the TA100 strain and sequenced using a next-generation sequencer HiSeq 2500 (manufactured by Illumina, Inc.) according to the standard protocol. In this operation, the DNA was fragmented into an average length of approximately 300 bp by ultrasonic treatment. Adaptors were added to both ends of each fragment. The fragments were sequenced at a read length of 2×125 bp. The obtained read sequences were mapped to the genomic sequence of a S. typhimurium LT-2 strain, a pSLT plasmid sequence (GCA000006945.2), and a R46 plasmid sequence (NC_003292.1), followed by mutation detection using Samtools software. […]

[3] = ENU 540 μg/tube, control subtracted

SMILES: CCN(N=O)C(N)=O [ENU, ethylnitrosourea]
- The number of revertants (Salmonella TA100 strain [1]; ENU 67.5 μg/plate): 258 ± 2.5
- The number of revertants (Salmonella TA100 strain [1]; ENU 135 μg/plate): 659 ± 113.9
- The number of revertants (Salmonella TA100 strain [1]; ENU 270 μg/plate): 3320 ± 734.4
- The number of revertants (Salmonella TA100 strain [1]; ENU 405 μg/plate): 4994 ± 455.6
- The number of revertants (Salmonella TA100 strain [1]; ENU 540 μg/plate): 5051 ± 173.0
- The number of revertants (Salmonella TA100 strain [1]; ENU 810 μg/plate, growth inhibition on plate): 3102 ± 883.0
- The number of revertants (Salmonella TA100 strain [1]; ENU 1080 μg/plate, growth inhibition on plate): 503 ± 190.9
- Change in the number of revertants by exposure (Salmonella TA100 strain [1]; ENU 67.5 to 1080 μg/plate against DMSO): Increase in the number of revertants was found
- Increased mutation frequencies by sequence context analysis (96 mutation types), C>T mutation (Salmonella TA100 strain [2]; 3-base context, FIG. 7 and FIG. 8): larger increase in mutation frequency was found in a context with a pyrimidine base (C or T) located at 3′ side to the C
- Ratio of AT > CG mutation pattern to the whole of increased mutation frequencies (mutation spectrum) (Salmonella TA100 strain [2]; [3]): 2.36%
- Ratio of AT > GC mutation pattern to the whole of increased mutation frequencies (mutation spectrum) (Salmonella TA100 strain [2]; [3]): 12.4%
- Ratio of AT > TA mutation pattern to the whole of increased mutation frequencies (mutation spectrum) (Salmonella TA100 strain [2]; [3]): 11.5%
- Ratio of GC > AT mutation pattern to the whole of increased mutation frequencies (mutation spectrum) (Salmonella TA100 strain [2]; [3]): 73.7%
- Increased mutation frequencies of GC base pair mutation patterns (Salmonella TA100 strain [2]; ENU 135, 270, 405 and 540 μg/tube, FIG. 4A): increase in the frequency of GC>AT mutation was found
- Increased mutation frequencies of AT base pair mutation patterns (Salmonella TA100 strain [2]; ENU 135, 270, 405 and 540 μg/tube, FIG. 4B): increase in the frequencies of AT>TA and AT>GC mutations was mainly found
